Assay [1] has as its system Rattus norvegicus. Put plainly: Inhibition of 5-HT induced pressor response in pithed rats, after intravenous administration of 0.02 mg/kg. In kind it is functional.
The target of assay [2] is Sodium-dependent dopamine transporter (Rattus norvegicus, UniProt P23977). Nature of the assay: In vitro inhibition of [3H]dopamine uptake in rat brain synaptosomes. In kind it is subcellular.
Assay [3] has as its target Sodium-dependent serotonin transporter (Rattus norvegicus, UniProt P31652). Nature of the assay: In vitro inhibition of [3H]5-HT transporter uptake in rat brain synaptosomes. In kind it is subcellular.
For assay [4], the species on record is Rattus norvegicus. Put plainly: Inhibition of L-5-HTP (L-5-hydroxytryptophan) induced head twitches in rat. In kind it is functional.
Assay [5] deals with T1, Adrenergic receptor alpha-1 (Rattus norvegicus, UniProt P15823+P23944+P43140).
T1 sequence (P15823 whole entry): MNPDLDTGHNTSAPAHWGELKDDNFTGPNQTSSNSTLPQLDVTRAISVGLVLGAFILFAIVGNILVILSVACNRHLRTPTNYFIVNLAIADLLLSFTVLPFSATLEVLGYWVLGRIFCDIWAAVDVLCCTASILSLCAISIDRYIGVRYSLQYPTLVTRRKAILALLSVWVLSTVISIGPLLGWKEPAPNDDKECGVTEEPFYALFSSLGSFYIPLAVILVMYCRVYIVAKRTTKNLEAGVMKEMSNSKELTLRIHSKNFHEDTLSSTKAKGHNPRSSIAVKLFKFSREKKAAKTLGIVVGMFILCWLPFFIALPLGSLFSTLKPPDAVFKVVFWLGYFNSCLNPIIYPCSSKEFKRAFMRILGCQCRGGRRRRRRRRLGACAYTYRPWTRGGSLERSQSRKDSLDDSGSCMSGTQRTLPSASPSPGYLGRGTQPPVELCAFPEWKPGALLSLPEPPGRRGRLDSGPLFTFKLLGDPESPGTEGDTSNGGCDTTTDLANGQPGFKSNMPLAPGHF
T1 sequence (P23944 whole entry): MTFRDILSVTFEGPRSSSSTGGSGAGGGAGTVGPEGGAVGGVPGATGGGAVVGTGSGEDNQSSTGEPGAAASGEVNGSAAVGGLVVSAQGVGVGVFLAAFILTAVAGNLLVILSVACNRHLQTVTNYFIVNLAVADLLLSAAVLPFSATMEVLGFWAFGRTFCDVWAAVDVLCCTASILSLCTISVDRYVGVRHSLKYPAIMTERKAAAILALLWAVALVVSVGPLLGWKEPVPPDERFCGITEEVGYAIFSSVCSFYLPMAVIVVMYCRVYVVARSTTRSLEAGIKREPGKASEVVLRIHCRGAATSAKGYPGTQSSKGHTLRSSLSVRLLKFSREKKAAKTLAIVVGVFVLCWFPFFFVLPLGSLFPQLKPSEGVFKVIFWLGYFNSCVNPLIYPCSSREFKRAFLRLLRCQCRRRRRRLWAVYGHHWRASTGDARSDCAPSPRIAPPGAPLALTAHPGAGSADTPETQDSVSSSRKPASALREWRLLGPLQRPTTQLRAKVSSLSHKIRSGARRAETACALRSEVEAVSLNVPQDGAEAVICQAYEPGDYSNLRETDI
T1 sequence (P43140 whole entry): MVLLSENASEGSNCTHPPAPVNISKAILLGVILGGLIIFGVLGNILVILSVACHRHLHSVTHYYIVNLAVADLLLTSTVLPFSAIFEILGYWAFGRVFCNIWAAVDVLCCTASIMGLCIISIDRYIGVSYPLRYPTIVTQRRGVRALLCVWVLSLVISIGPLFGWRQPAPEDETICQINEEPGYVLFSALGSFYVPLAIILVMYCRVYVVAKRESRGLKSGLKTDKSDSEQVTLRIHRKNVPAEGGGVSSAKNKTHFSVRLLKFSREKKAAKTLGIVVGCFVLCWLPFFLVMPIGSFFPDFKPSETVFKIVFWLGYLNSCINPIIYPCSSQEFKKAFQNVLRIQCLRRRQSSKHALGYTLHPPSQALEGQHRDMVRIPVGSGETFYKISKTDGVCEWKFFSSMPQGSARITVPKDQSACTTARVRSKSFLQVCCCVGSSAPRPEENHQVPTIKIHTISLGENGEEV
Put plainly: Inhibition of [3H]prazosin binding to alpha-1 adrenergic receptor from rat cortical membranes. In kind it is cell membranes, Membrane.

Assay [6] concerns the target Norepinephrine transporter (Rattus norvegicus, UniProt Q9WTR4). Put plainly: In vitro inhibition of [3H]norepinephrine uptake in rat brain synaptosomes. In kind it is subcellular.
Assay [7] concerns the target Serotonin 2 (5-HT2) receptor (Rattus norvegicus, UniProt P30994+P08909+P14842). Nature of the assay: Inhibition of [3H]spiperone binding to 5-hydroxytryptamine 2 receptor from rat cortical membranes. The class given is cell membranes, Membrane.
Assay [8] has as its system Rattus norvegicus. Nature of the assay: Inhibition of phenylephrine induced pressor response in pithed rats (following i.v. administration of […]). The settings on record: route intravenous. In kind it is functional.
In assay [9] the test system is Rattus norvegicus. Put plainly: Percent reduction of blood pressure in spontaneously hypertensive rat after 10 min at intraperitoneal administration of 5 mg/kg. In kind it is functional.
The target of a further assay is D(2) dopamine receptor (Rattus norvegicus, UniProt P61169). Put plainly: Inhibition of [3H]spiperone binding to Dopamine receptor D2 from rat striatal membranes. In kind it is cell membranes, Membrane.
Sequence of D(2) dopamine receptor (P61169 whole entry): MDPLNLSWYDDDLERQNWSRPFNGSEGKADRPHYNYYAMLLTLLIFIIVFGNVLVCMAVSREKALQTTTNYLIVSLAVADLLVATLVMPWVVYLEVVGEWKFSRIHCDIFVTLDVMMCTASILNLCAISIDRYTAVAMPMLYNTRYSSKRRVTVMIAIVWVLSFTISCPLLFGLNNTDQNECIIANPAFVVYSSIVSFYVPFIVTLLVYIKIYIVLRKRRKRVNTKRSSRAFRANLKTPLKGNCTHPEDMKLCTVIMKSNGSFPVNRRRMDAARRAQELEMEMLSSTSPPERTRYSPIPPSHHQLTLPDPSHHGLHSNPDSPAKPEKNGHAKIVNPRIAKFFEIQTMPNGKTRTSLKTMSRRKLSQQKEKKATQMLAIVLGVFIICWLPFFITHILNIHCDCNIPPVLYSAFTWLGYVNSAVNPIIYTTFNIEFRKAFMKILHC
Assay [10] concerns Rattus norvegicus. Nature of the assay: Inhibition of 5-HT induced pressor response in pithed rats, after intravenous administration, activity is expressed as ED50. The class given is functional.
The test system of assay [11] is Rattus norvegicus. Put plainly: Percent reduction of diastolic arterial blood pressure(DAP) in spontaneously hypertensive rat after 10 min at intraperitoneal administration of 5 mg/kg. In kind it is functional.
The subject of assay [12] is Rattus norvegicus. Nature of the assay: Inhibition of 5-HT induced pressor response in pithed rats, after intravenous administration. In kind it is functional.
The species entered for the next assay is Mus musculus. Put plainly: Inhibition of methyl phenidate induced stereotyped gnawing in mice. The class given is functional.
In assay [13] the test system is Rattus norvegicus. Put plainly: Percent reduction of systolic arterial blood pressure(SAP) in spontaneously hypertensive rat after 10 min at intraperitoneal administration of 5 mg/kg. In kind it is functional.
For assay [14], the species on record is Rattus norvegicus. Nature of the assay: Ratio of phenylephrine ED50/ 5-HT ED50. The class given is functional.
Setting [15] is: Rattus norvegicus, read-out: ED50.

The values below come from ChEMBL document CHEMBL1124016, “Antihypertensive activity in a series of 1-piperazino-3-phenylindans with potent 5-HT2-antagonistic activity” (J Med Chem, 1988).

By pIC50 is commonly meant the IC50 on a negative log10 scale, so that one unit is a factor of ten. A word on the IC50: it is the concentration needed to halve the response being measured. The low end stands for inhibition by little substance, the high end for a need for much substance.

pIC50: −log10 of the molar value. A value given as a limit tells only on which side of the number the result lay.

Sequence of Sodium-dependent serotonin transporter (P31652 whole entry): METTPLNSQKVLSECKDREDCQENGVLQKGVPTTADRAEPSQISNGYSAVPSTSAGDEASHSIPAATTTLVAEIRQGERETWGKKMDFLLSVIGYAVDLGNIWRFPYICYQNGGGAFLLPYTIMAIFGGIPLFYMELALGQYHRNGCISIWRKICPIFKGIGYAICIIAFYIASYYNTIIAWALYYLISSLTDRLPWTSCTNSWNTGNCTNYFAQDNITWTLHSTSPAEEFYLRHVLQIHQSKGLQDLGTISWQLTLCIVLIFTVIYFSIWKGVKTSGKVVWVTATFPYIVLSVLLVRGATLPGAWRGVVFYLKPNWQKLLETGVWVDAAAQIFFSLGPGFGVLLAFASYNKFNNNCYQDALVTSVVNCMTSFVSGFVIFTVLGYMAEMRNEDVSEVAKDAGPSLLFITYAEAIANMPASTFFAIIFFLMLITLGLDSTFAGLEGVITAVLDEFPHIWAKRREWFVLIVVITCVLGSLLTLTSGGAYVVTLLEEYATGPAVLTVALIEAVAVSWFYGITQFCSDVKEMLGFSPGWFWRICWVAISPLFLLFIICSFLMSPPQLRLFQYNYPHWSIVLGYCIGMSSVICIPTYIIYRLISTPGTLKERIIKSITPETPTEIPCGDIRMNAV
Sequence of Norepinephrine transporter (Q9WTR4 whole entry): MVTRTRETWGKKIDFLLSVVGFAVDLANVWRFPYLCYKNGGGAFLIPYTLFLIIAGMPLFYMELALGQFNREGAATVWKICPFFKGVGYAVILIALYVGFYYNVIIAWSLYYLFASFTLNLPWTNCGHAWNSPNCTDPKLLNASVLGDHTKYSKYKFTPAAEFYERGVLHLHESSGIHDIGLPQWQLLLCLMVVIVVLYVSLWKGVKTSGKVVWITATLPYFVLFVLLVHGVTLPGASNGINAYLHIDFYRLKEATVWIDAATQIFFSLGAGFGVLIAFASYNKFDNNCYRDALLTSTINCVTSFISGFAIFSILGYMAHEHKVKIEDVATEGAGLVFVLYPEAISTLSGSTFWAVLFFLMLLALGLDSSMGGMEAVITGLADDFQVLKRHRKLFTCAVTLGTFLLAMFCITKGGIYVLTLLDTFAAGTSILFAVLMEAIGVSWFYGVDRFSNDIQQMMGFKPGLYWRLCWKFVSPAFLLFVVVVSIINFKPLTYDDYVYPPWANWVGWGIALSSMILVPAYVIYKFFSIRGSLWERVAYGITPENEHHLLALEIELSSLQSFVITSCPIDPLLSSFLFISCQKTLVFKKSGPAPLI
Sequence of Sodium-dependent dopamine transporter (P23977 whole entry): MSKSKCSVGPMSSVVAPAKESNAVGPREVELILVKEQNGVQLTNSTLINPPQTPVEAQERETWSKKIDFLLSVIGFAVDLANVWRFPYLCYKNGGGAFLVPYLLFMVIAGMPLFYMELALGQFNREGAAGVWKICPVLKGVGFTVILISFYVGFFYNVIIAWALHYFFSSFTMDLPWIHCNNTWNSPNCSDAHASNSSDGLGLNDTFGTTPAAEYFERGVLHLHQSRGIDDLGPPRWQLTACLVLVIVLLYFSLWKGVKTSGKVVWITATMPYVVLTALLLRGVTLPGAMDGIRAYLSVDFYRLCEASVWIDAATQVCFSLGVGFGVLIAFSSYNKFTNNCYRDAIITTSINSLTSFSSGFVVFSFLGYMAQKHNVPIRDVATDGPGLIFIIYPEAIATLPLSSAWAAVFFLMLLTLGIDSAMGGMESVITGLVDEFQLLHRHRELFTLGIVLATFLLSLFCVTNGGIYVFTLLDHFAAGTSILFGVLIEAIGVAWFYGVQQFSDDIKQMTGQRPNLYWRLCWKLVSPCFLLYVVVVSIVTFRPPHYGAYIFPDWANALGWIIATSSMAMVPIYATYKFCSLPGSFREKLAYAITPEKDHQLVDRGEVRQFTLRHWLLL

Regarding `O=C1NCCN1CCN1CCN([C@@H]2C[C@@H](c3ccc(F)cc3)c3ccccc32)CC1` (stereo in doubt; 27) [IRINDALONE], the Change in the assay with Rattus norvegicus [1] (0.02 mg/kg) is on record as -3%; in the assay on Rattus norvegicus [8] ([…]), 33%. Further, the pIC50 in assay [2] was 7.00; in assay [3] it was less than 4.00; in assay [6], 7.36; at D(2) dopamine receptor it was 5.34. In addition, the ED50 in the assay filed under Rattus norvegicus [4] was greater than 196 µM/kg. Further, the IC50 in [5] turned out to be 670 nM; in [7], 520 nM. Moreover, the Reduction with Rattus norvegicus [9] (5 mg/kg) was -3%.

Turning to `Fc1ccc([C@@H]2C[C@@H](N3CCNCC3)c3ccccc32)cc1.O=C(O)/C=C\C(=O)O.O=C(O)/C=C\C(=O)O`, the Change in the assay with Rattus norvegicus [1] is -40%; in the assay with Rattus norvegicus [8], 10%. Moreover, the ED50 was 8.3 µmol/kg in the assay on Rattus norvegicus [10], 0.1 µmol/kg in the assay on Rattus norvegicus [12], greater than 76 µmol/kg in the assay filed under Mus musculus and 1.7 µmol/kg in the assay filed under Rattus norvegicus [4]. Also, the Reduction is -31% in the assay with Rattus norvegicus [11] and -25% in the assay with Rattus norvegicus [13]. In addition, the pIC50 in assay [2] was 6.55; in assay [3], 7.38; in assay [6], 6.35; at D(2) dopamine receptor, 6.24. Moreover, the IC50 in assay [5] is reported as 37 nM; in [7] it was 18 nM. For the same compound, the Ratio in the assay filed under Rattus norvegicus [14] is 83.

On to `O=C(O)/C=C\C(=O)O.O=C(O)/C=C\C(=O)O.O=C1NCCN1CCN1CCN([C@H]2C[C@H](c3ccc(F)cc3)c3ccc(F)cc32)CC1`, for which the figures for the Change in the assay with Rattus norvegicus [1] and in the assay on Rattus norvegicus [8] were 2% and 11%, respectively. For the same compound, the Increase in the assay with Rattus norvegicus [11] is recorded as 4%; in the assay with Rattus norvegicus [13], 6%. Also, the pIC50 is 7.17 in assay [2], 5.66 in [3], 7.77 in assay [6] and 5.35 on D(2) dopamine receptor. For the same compound, the ED50 with Rattus norvegicus [12] was 0.93 µmol/kg; in the assay listed under Mus musculus, greater than 61 µmol/kg; in the assay filed under Rattus norvegicus [4], 20 µmol/kg. Further, the figures for the IC50 in assay [5] and in assay [7] were 900 nM and 320 nM, respectively.

Take `Fc1ccc([C@H]2C[C@H](N3CCNCC3)c3ccccc32)cc1.O=C(O)/C=C\C(=O)O.O=C(O)/C=C\C(=O)O`: the Change is -3% with Rattus norvegicus [1] and 41% in the assay with Rattus norvegicus [8]. The pIC50 in [2] was 6.66; in [3], 6.40; in assay [6], 6.85; at D(2) dopamine receptor it was 5.07. Also, the ED50 in the assay listed under Mus musculus is greater than 76 µmol/kg; in the assay filed under Rattus norvegicus [4] (setting [15]), 13 µmol/kg. Also, the IC50 in [5] stood at 540 nM; in assay [7], 180 nM. The Reduction with Rattus norvegicus [9] is listed as -2%.

As for `O.O=C1NCCN1CCN1CCN([C@H]2C[C@H](c3ccc(F)cc3)c3ccccc32)CC1`, the Change in the assay on Rattus norvegicus [1] is recorded as -11%; in the assay on Rattus norvegicus [8] it was 53%. Also, the pIC50 in assay [2] was 6.85; in assay [3], 5.01; in [6], 7.16; on D(2) dopamine receptor, 4.89. Moreover, the results for the ED50 in the assay with Rattus norvegicus [12], in the assay filed under Mus musculus and in the assay listed under Rattus norvegicus [4] (setting [15]) were 2.7 µmol/kg, greater than 97 µmol/kg and greater than 97 µmol/kg, respectively. The IC50 in [5] amounted to 540 nM; in assay [7], 570 nM. Besides, the Reduction in the assay on Rattus norvegicus [9] worked out at 3%.

`CN1CCN([C@H]2C[C@H](c3ccc(F)cc3)c3ccc(F)cc32)CC1`: the Change is on record as -43% with Rattus norvegicus [1] and 5% in the assay on Rattus norvegicus [8]. For the same compound, the pIC50 in assay [2] is 7.09; in [3] it was 6.21; in assay [6], 7.55. The ED50 in the assay filed under Mus musculus came to 42 µmol/kg; in the assay listed under Rattus norvegicus [4] (setting [15]) it was 0.49 µmol/kg. Besides, the IC50 in assay [5] stood at 85 nM; in assay [7] it was 43 nM. For the same compound, the Reduction in the assay with Rattus norvegicus [9] is recorded as -5%.

On to `CN1CCN([C@@H]2C[C@@H](c3ccc(F)cc3)c3ccc(F)cc32)CC1`, for which the results for the Change with Rattus norvegicus [1] and in the assay on Rattus norvegicus [8] were -79% and -48%, respectively. Besides, the pIC50 in assay [2] is 5.77; in assay [3] it was 5.41; in [6] it was 4.92. Also, the ED50 worked out at 2.5 µmol/kg in the assay listed under Mus musculus and 0.13 µmol/kg in the assay listed under Rattus norvegicus [4] (setting [15]). Also, the IC50 in assay [5] was 9.3 nM; in assay [7] it was 4.9 nM. Besides, the Reduction in the assay with Rattus norvegicus [9] was -28%.

For `O=C1NCCN1CCN1CCN([C@@H]2C[C@@H](c3ccc(F)cc3)c3ccccc32)CC1` (stereo in doubt; (+)2) [IRINDALONE], the Change in the assay on Rattus norvegicus [1] (0.02 mg/kg) is given as -85%; with Rattus norvegicus [8] ([…]), -42%. Besides, the ED50 was 0.77 µmol/kg in the assay with Rattus norvegicus [10], 0.0045 µmol/kg in the assay on Rattus norvegicus [12], greater than 72 µmol/kg in the assay filed under Mus musculus and 0.56 µM/kg in the assay listed under Rattus norvegicus [4]. In addition, the pIC50 in assay [2] was 4.60; in assay [3] it was 4.85; in assay [6], 4.66. Besides, the IC50 was 26 nM in assay [5] and 3.4 nM in [7]. Moreover, the Ratio in the assay filed under Rattus norvegicus [14] is listed as 171. Also, the Reduction with Rattus norvegicus [9] (5 mg/kg) is -48%.

For `O=C(O)/C=C\C(=O)O.O=C(O)/C=C\C(=O)O.O=C1NCCN1CCN1CCN([C@@H]2C[C@@H](c3ccc(F)cc3)c3ccc(F)cc32)CC1`, the ED50 with Rattus norvegicus [10] turned out to be 1.4 µmol/kg; in the assay with Rattus norvegicus [12], 0.01 µmol/kg; in the assay filed under Rattus norvegicus [4], 0.096 µmol/kg. Moreover, the Reduction in the assay with Rattus norvegicus [11] is -31%; in the assay on Rattus norvegicus [13] it was -24%. For the same compound, the pIC50 in [2] was 5.24; in [3], 6.14; in assay [6] it was 5.60; at D(2) dopamine receptor it was 7.34. The figures for the IC50 in assay [5] and in assay [7] were 10 nM and 4.3 nM, respectively. The Ratio in the assay filed under Rattus norvegicus [14] is listed as 140.
